These results are taken from patent publication US20060210622A1, “Surface modified particulate compositions of biologically active substances” (Skyepharma Canada Inc., priority 1999, published 2006).

Values after ≈ are worked out from the molar mass of the structure shown.

The nature of one data set: physchem. It is filed as physicochemical. How it is done: Solubility of biologically active substances, particularly drug substances in lipophilic and hydrophilic solvents. […] The solvents mentioned in the following table were evaluated. Solubilities, determined by high performance liquid chromatography (HPLC) assay of the dissolved drug in water and several non-aqueous vehicles, are given the following table in units of mg/mL. Low solubility of this drug in either water or organic solvents renders it suitable for formulating as a stable surface modified particulate dispersion in a non-aqueous carrier system.

A short description of data set [1]: Precipitation behavior of benzyl benzoate solution transferred to water, optical microscope under polarized light. It counts as physicochemical. An excerpt:
A portion of the ursodiol solution in benzyl benzoate was transferred to water and shaken. A mixture containing oily droplets resulted. […] This observation makes it possible to further prepare compositions of ursodiol utilizing appropriate solvent system and surface active agents so that micron-sized particle will be generated spontaneously upon addition of these compositions in aqueous media.

As to `CCC(C)n1ncn(-c2ccc(N3CCN(c4ccc(OCC5COC(Cn6cncn6)(c6ccc(Cl)cc6Cl)O5)cc4)CC3)cc2)c1=O` (stereo not shown) [Itraconazole], in “physchem”, the “Solubility in pharmaceutically acceptable lipophilic vehicles” value is listed as “very poorly soluble”. This compound also had a solubility in “physchem” (water, Solubility of Itraconazole) of 10 µg/mL (≈ 14.2 µM).
Consider `C[C@H](CCC(=O)O)[C@H]1CC[C@H]2[C@@H]3[C@@H](O)C[C@@H]4C[C@H](O)CC[C@]4(C)[C@H]3CC[C@]12C` [ursodiol], for which the “Size of crystalline particles observed in the mixture” value in data set [1] (benzyl benzoate solution in water, optical microscope, polarized light) was “below 10 micron”. In addition, the “Precipitation on transfer of solution to water” value in data set [1] (benzyl benzoate solution transferred to water and shaken) was “No precipitation was seen occurring”.

As a reminder, the solubility is the concentration that dissolves in the medium under given conditions. A higher solubility goes with much dissolved substance.
